Assay results reported in ChEMBL document CHEMBL1201862, “PubChem BioAssay data set” (2004).
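Results reflect a 48-hour exposure of cells in 96-well plates to compound at five concentrations. GI50: concentration for 50% inhibition of growth.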 Calls of active or inactive are those of the source. Rule as the data show it: active = GI50 up to about 1.1 µM and inactive = higher.

What was measured:
Experiment in all cases: NCI tumour cell line growth inhibition, 48 h
786-0 = tested on: 786-0
A498 = tested on: A498
A549 = tested on: A549
ACHN = tested on: ACHN
CAKI-1 = tested on: CAKI-1
CCRF-CEM = tested on: CCRF-CEM
COLO 205 = tested on: COLO 205
DLD-1 = tested on: DLD-1
DMS-114 = tested on: DMS-114
DMS-273 = tested on: DMS-273
EKVX = tested on: EKVX
HCC 2998 = tested on: HCC 2998
HCT-116 = tested on: HCT-116
HCT-15 = tested on: HCT-15
HL-60 = tested on: HL-60
HOP-18 = tested on: HOP-18
HOP-62 = tested on: HOP-62
HOP-92 = tested on: HOP-92
HT-29 = tested on: HT-29
IGROV-1 = tested on: IGROV-1
K562 = tested on: K562
KM-20L2 = tested on: KM-20L2
KM12 = tested on: KM12
LOX IMVI = tested on: LOX IMVI
LXFL 529 = tested on: LXFL 529
M14 = tested on: M14
M19-MEL = tested on: M19-MEL
MOLT-4 = tested on: MOLT-4
Malme-3M = tested on: Malme-3M
NCI-H23 = tested on: NCI-H23
NCI-H460 = tested on: NCI-H460
OVCAR-3 = tested on: OVCAR-3
OVCAR-4 = tested on: OVCAR-4
OVCAR-5 = tested on: OVCAR-5
OVCAR-8 = tested on: OVCAR-8
RPMI-8226 = tested on: RPMI-8226
RXF 393 = tested on: RXF 393
SF-268 = tested on: SF-268
SF-295 = tested on: SF-295
SF-539 = tested on: SF-539
SK-MEL-2 = tested on: SK-MEL-2
SK-MEL-5 = tested on: SK-MEL-5
SK-OV-3 = tested on: SK-OV-3
SN12C = tested on: SN12C
SNB-19 = tested on: SNB-19
SNB-75 = tested on: SNB-75
SW-620 = tested on: SW-620
TK-10 = tested on: TK-10
U-251 = tested on: U-251
UACC-257 = tested on: UACC-257
UACC-62 = tested on: UACC-62
UO-31 = tested on: UO-31
XF498 = tested on: XF498
NCI-H226 = tested on: NCI-H226
NCI-H522 = tested on: NCI-H522
SK-MEL-28 = tested on: SK-MEL-28
SR = tested on: SR

O=S(=O)(O)C(F)(F)C(F)(F)C(F)(F)C(F)(F)F
GI50 (786-0): > 100 µM (inactive)
GI50 (A498): 43.7 µM (inactive)
GI50 (A549): > 100 µM (inactive)
GI50 (ACHN): > 100 µM (inactive)
GI50 (CAKI-1): > 100 µM (inactive)
GI50 (CCRF-CEM): > 100 µM (inactive)
GI50 (COLO 205): > 100 µM (inactive)
GI50 (DLD-1): > 100 µM (inactive)
GI50 (DMS-114): > 100 µM (inactive)
GI50 (DMS-273): > 100 µM (inactive)
GI50 (EKVX): > 100 µM (inactive)
GI50 (HCC 2998): > 100 µM (inactive)
GI50 (HCT-116): > 100 µM (inactive)
GI50 (HCT-15): > 100 µM
GI50 (HL-60): > 100 µM (inactive)
GI50 (HOP-18): > 100 µM (inactive)
GI50 (HOP-62): > 100 µM (inactive)
GI50 (HOP-92): 9.51 µM (inactive)
GI50 (HT-29): > 100 µM (inactive)
GI50 (IGROV-1): > 100 µM (inactive)
GI50 (K562): > 100 µM (inactive)
GI50 (KM-20L2): > 100 µM (inactive)
GI50 (KM12): > 100 µM (inactive)
GI50 (LOX IMVI): > 100 µM (inactive)
GI50 (LXFL 529): > 100 µM (inactive)
GI50 (M14): > 100 µM (inactive)
GI50 (M19-MEL): > 100 µM (inactive)
GI50 (MOLT-4): > 100 µM (inactive)
GI50 (Malme-3M): > 100 µM (inactive)
GI50 (NCI-H23): > 100 µM (inactive)
GI50 (NCI-H460): > 100 µM (inactive)
GI50 (OVCAR-3): > 100 µM (inactive)
GI50 (OVCAR-4): > 100 µM (inactive)
GI50 (OVCAR-5): > 100 µM (inactive)
GI50 (OVCAR-8): > 100 µM (inactive)
GI50 (RPMI-8226): > 100 µM (inactive)
GI50 (RXF 393): > 100 µM (inactive)
GI50 (SF-268): > 100 µM (inactive)
GI50 (SF-295): > 100 µM (inactive)
GI50 (SF-539): > 100 µM (inactive)
GI50 (SK-MEL-2): > 100 µM (inactive)
GI50 (SK-MEL-5): > 100 µM (inactive)
GI50 (SK-OV-3): > 100 µM (inactive)
GI50 (SN12C): > 100 µM (inactive)
GI50 (SNB-19): > 100 µM (inactive)
GI50 (SNB-75): > 100 µM (inactive)
GI50 (SW-620): > 100 µM (inactive)
GI50 (TK-10): > 100 µM (inactive)
GI50 (U-251): > 100 µM (inactive)
GI50 (UACC-257): > 100 µM (inactive)
GI50 (UACC-62): > 100 µM (inactive)
GI50 (UO-31): > 100 µM (inactive)
GI50 (XF498): > 100 µM (inactive)

CCC/C=C1\CCC(CN(C)C)C1=O (centres undefined)
GI50 (786-0): 2.81 µM (inactive)
GI50 (A498): 0.455 µM (active)
GI50 (A549): 29.6 µM (inactive)
GI50 (ACHN): 5.62 µM (inactive)
GI50 (CAKI-1): 2.13 µM (inactive)
GI50 (CCRF-CEM): 1.09 µM (active)
GI50 (COLO 205): 3.1 µM (inactive)
GI50 (DLD-1): 2.38 µM (inactive)
GI50 (DMS-114): 15.6 µM (inactive)
GI50 (DMS-273): 11.9 µM (inactive)
GI50 (EKVX): 6.12 µM (inactive)
GI50 (HCC 2998): 15.8 µM (inactive)
GI50 (HCT-116): 9.91 µM (inactive)
GI50 (HCT-15): 2.51 µM
GI50 (HL-60): 9.25 µM (inactive)
GI50 (HOP-18): 23.4 µM (inactive)
GI50 (HOP-62): 15.7 µM (inactive)
GI50 (HOP-92): 3.04 µM (inactive)
GI50 (HT-29): 8.11 µM (inactive)
GI50 (IGROV-1): 18.5 µM (inactive)
GI50 (K562): 2.15 µM (inactive)
GI50 (KM-20L2): 10.3 µM (inactive)
GI50 (KM12): 4.67 µM (inactive)
GI50 (LOX IMVI): 7.35 µM (inactive)
GI50 (LXFL 529): 1.82 µM (inactive)
GI50 (M14): 6.52 µM (inactive)
GI50 (M19-MEL): 12.9 µM (inactive)
GI50 (MOLT-4): 2.88 µM (inactive)
GI50 (Malme-3M): 1.77 µM (inactive)
GI50 (NCI-H226): 19 µM (inactive)
GI50 (NCI-H23): 17.1 µM (inactive)
GI50 (NCI-H460): 28.1 µM (inactive)
GI50 (NCI-H522): 1.93 µM (inactive)
GI50 (OVCAR-3): 5.47 µM (inactive)
GI50 (OVCAR-4): 18.8 µM (inactive)
GI50 (OVCAR-5): 20 µM (inactive)
GI50 (OVCAR-8): 10.2 µM (inactive)
GI50 (RPMI-8226): 0.333 µM (active)
GI50 (SF-268): 14.5 µM (inactive)
GI50 (SF-295): 24.1 µM (inactive)
GI50 (SF-539): 10.8 µM (inactive)
GI50 (SK-MEL-28): 6.52 µM (inactive)
GI50 (SK-MEL-2): 15.9 µM (inactive)
GI50 (SK-MEL-5): 16.7 µM (inactive)
GI50 (SK-OV-3): 36.3 µM (inactive)
GI50 (SN12C): 16.9 µM (inactive)
GI50 (SNB-19): 36.7 µM (inactive)
GI50 (SNB-75): 18.1 µM (inactive)
GI50 (SR): 2.49 µM (inactive)
GI50 (SW-620): 4.6 µM (inactive)
GI50 (TK-10): 5.41 µM (inactive)
GI50 (U-251): 5.81 µM (inactive)
GI50 (UACC-257): 15 µM (inactive)
GI50 (UACC-62): 14.6 µM (inactive)
GI50 (UO-31): 12.4 µM (inactive)
GI50 (XF498): 5.57 µM (inactive)
